Values after ≈ are worked out from the molar mass of the structure shown. Values joined by “and” are separate entries in the source; they are usually repeats but may differ in a detail not shown here. Equal values may be shown once. Where a name gives a salt, the structure may show the parent alone. Read-outs that look alike come from different tables or passages of the source.
Assays:
patients [1] = tested on: patients; parameters: method as in Conatus Pharmaceuticals Inc, 2012; conditions: 30 mg per day for up to 24 weeks; ref Conatus Pharmaceuticals Inc, 2012; cited from earlier work
[2] = tested on: SVMP activity of five viper venoms; test: SVMP fluorogenic substrate assay, summary across the panel of five viper venoms; type: biochemical; conditions: for EC50: five venoms
Description: (§1) Daughter plates and assay-ready plates were stored at −20°C, with the latter used within a month of creation. For SVMP assay-ready plates, 0.91 µL of each drug from the respective daughter plate was plated, such that in the final assay volume of 91 μL, a final concentration of 10 µM was reached. […] In secondary screening, dose response curves were created, with a top final assay concentration of 10 µM and reaching sub-nanomolar concentrations (concentration range was dependent on specific plate layout), with each concentration tested in duplicate.
(§2) The SVMP activity of crude venom in the presence of inhibitors or vehicle control (DMSO) was measured using a quenched fluorogenic substrate (substrate for MMPs, ADAMs and Cathepsins, Cat no: ES010, Bio-Techne). […] Reactions consisted of 1 µg of venom in 15 µL PBS co-incubated with 0.91 µL of inhibitor at a concentration of 1 mM. […] The plates were read on a CLARIOstar microplate reader (BMG Labtech), at an excitation wavelength of 320–10 nm and emission wavelength of 420–10 nm with 10 flashes per well at 25°C, at a pre-defined end read time. The end-read times were selected independently for each venom, as the plateau point for the venom + vehicle control (maximum fluorescence) identified in an initial 1-h kinetic read.
(§3) The SVMP activity for the end-read data was calculated for each test condition as a percentage of the mean of the venom + vehicle wells (100% activity), with a baseline of the marimastat 10 µM controls representing 0% activity (Supplementary Equation S1).

[3] = tested on: SVMP activity of Echis ocellatus venom; test: SVMP fluorogenic substrate assay, E. ocellatus venom; type: biochemical; conditions: for EC50: E. ocellatus venom, 20-min endpoint, N/A = did not cross 50% inhibition at any dose, read-out: EC50, known inhibitors validation screen; for activity at the top dose tested: top 10 µM dose, negative control drugs
Description: as §1, §2, §3

[4] = tested on: SVMP activity of Calloselasma rhodostoma venom; test: SVMP fluorogenic substrate assay, C. rhodostoma venom; type: biochemical; conditions: 20-min endpoint, read-out: EC50, known inhibitors validation screen
Description: as §1, §2, §3

[5] = tested on: SVMP activity of Bothrops jararaca venom; test: SVMP fluorogenic substrate assay, B. jararaca venom; type: biochemical; conditions: 30-min endpoint, read-out: EC50, known inhibitors validation screen
Description: as §1, §2, §3

[6] = tested on: SVMP activity of Bitis arietans venom; test: SVMP fluorogenic substrate assay, B. arietans venom; type: biochemical; conditions: 40-min endpoint, read-out: EC50, known inhibitors validation screen
Description: as §1, §2, §3

[7] = tested on: SVMP activity of Crotalus atrox venom; test: SVMP fluorogenic substrate assay, C. atrox venom; conditions: read-out: EC50, known inhibitors validation screen, 30-min endpoint
Description: as §1, §2, §3

patients [8] = tested on: patients; parameters: method as in Bissett et al., 2005; conditions: ref Bissett et al., 2005, cited from earlier work
[9] = parameters: method as in MedChemExpress; conditions: ref MedChemExpress; cited from earlier work
5 alpha Reductase = target: 5 alpha Reductase; parameters: method as in MedChemExpress; conditions: benign prostatic hyperplasia, ref MedChemExpress, cited from earlier work
5-HT2A = tested on: 5-HT2A; parameters: method as in MedChemExpress; conditions: IP accumulation assays; ref MedChemExpress; read-out: IC50, 5-HT2A inverse agonist; cited from earlier work
5-HT2C = tested on: 5-HT2C; parameters: method as in MedChemExpress; conditions: IP accumulation assays; ref MedChemExpress; read-out: IC50, 5-HT2C partial inverse agonist; cited from earlier work
5-HT2B = tested on: 5-HT2B; parameters: method as in MedChemExpress; conditions: IP accumulation assays; ref MedChemExpress; read-out: IC50, 5-HT2B inverse agonist; cited from earlier work
[10] = parameters: method as in Williams et al., 2011b; conditions: ref Williams et al., 2011b; cited from earlier work
[11] = read-out: EC50 against each of the venoms, secondary screen
[12] = validation screen, read-out: EC50 range across all venoms, known inhibitors
[13] = validation screen, read-out: average EC50 across all venoms

## O=C(NO)C1(CS(=O)(=O)c2ccc(Oc3ccc(Cl)cc3)cc2)CCOCC1 [CTS-1027]
Patients [1]
  adverse events in Phase II trials: a range of serious adverse events

## OCCN1C[C@H](O)[C@@H](O)[C@H](O)[C@H]1CO [miglitol]
[2]; [11]
  EC50: > 1 µM

## CNC(=O)[C@@H](NC(=O)[C@H](CC(C)C)[C@H](O)C(=O)NO)C(C)(C)C [marimastat, (2S,3R)-N4-[(1S)-2,2-Dimethyl-1-[(methylamino)carbonyl]propyl]-N1,2-dihydroxy-3-(2-methylpropyl)butanediamide]
[3]
  EC50: 0.00499 µM
[4]
  EC50: 0.0277 µM
[5]
  EC50: 0.00746 µM
[6]
  EC50: 0.00236 µM
[7]
  EC50: 0.012 µM

## CC1(C)SCCN(S(=O)(=O)c2ccc(Oc3ccncc3)cc2)[C@H]1C(=O)NO [prinomastat, prinomastat hydrochloride]
[3]
  EC50: 0.00435 µM
[4]
  EC50: 0.0367 µM
[5]
  EC50: 0.00953 µM
[6]
  EC50: 0.00242 µM
Patients [8]; 15 mg bi-daily dosing for 3–36 months
  toxicity observed in Phase III trials: musculoskeletal toxicity was observed in a significant proportion of patients
Patients [8]; cancer patients receiving combination chemotherapy
  thromboembolic risk in Phase III trials: increased risk of venous thromboembolic disease
[7]
  EC50: 0.0198 µM

## O=S(=O)(O)CC(S)CS (stereo not shown) [DMPS, 2,3-dimercapto-1-propane-sulfonic acid sodium salt monohydrate]
[3]
  EC50: 0.959 µM
[4]
  EC50: 5.28 µM
[5]
  EC50: 0.527 µM
[6]
  EC50: 1.21 µM
[2]; [12]
  EC50: 0.527 to 5.28 µM
[2]; [13]
  EC50: 2.25 µM
[7]
  EC50: 3.26 µM

## CNC(=O)[C@H](Cc1ccccc1)NC(=O)[C@H](CC(C)C)[C@H](CSc1cccs1)C(=O)NO [batimastat, (2R,3S)-N4-Hydroxy-N1-[(1S)-2-(methylamino)-2-oxo-1-(phenylmethyl)ethyl]-2-(2-methylpropyl)-3-[(2-thienylthio)methyl]butanediamide]
[3]
  EC50: 0.00623 µM
[4]
  EC50: 0.042 µM
[5]
  EC50: 0.00557 µM
[6]
  EC50: 0.00249 µM
[7]
  EC50: 0.0154 µM

## NS(=O)(=O)c1cc2c(cc1Cl)N=CNS2(=O)=O [chlorothiazide]
[2]; [11]
  EC50: > 1 µM

## C[C@]12C=CC(=O)N[C@@H]1CC[C@@H]1[C@@H]2CC[C@]2(C)[C@@H](C(=O)Nc3cc(C(F)(F)F)ccc3C(F)(F)F)CC[C@@H]12 [Dutasteride]
[9]
  Solubility in DMSO: 63.06 mM (≈ 33.3 mg/mL)

## CS(=O)(=O)O.N=C(N)c1ccc2cc(OC(=O)c3ccc(N=C(N)N)cc3)ccc2c1 [nafamostat, (6-Carbamimidoylnaphthalen-2-yl)4-(diaminomethylideneamino)benzoate methanesulfonic acid]
[3]
  activity at the top dose tested: no activity

## S=C(N/N=C1\CCCc2cccnc21)N1CCN(c2ccccn2)CC1 [COTI-2]
[2]; across all venoms, secondary screen
  fold superiority of EC50 to dimercaprol: > 2 fold
[2]; read-out: EC50 range across all venoms, secondary screen
  EC50: 0.185 to 0.64 µM

## OCC(S)CS (stereo not shown) [dimercaprol, 2,3-dimercapto-1-propanol]
[3]
  EC50: 1.12 µM and 1.13 µM
[4]
  EC50: 6.86 µM
[5]
  EC50: 0.558 µM
[6]
  EC50: 2.29 µM
[2]; [12]
  EC50: 0.558 to 6.86 µM
[2]; [13]
  EC50: 3.14 µM
[7]
  EC50: 4.89 µM

## CCc1c(C(=O)C(N)=O)c2c(OCC(=O)O)cccc2n1Cc1ccccc1 [varespladib, 2-[[3-(2-Amino-2-oxoacetyl)-2-ethyl-1-(phenylmethyl)-1H-indol-4-yl]oxy]-acetic acid]
[3]
  activity at the top dose tested: no activity

## CC(C)(C)NC(=O)[C@H]1CC[C@H]2[C@@H]3CC[C@H]4NC(=O)C=C[C@]4(C)[C@H]3CC[C@]12C [Finasteride]
5 alpha Reductase; epithelium, read-out: Ki, 5alpha-reductase activity in epithelium
  Ki: 0.01 µM
5 alpha Reductase; stroma, read-out: Ki, 5alpha-reductase activity in stroma
  Ki: 0.033 µM
[9]
  Solubility in DMSO: 150 mg/mL and 402.64 mM

## O=C(/C=C/c1cccc(S(=O)(=O)Nc2ccccc2)c1)NO [belinostat]
[2]; [11]
  EC50: > 1 µM

## COc1ccc(NC(=O)Nc2ccc(F)cc2F)cc1-c1c(Br)cnn1C [Nelotanserin]
5-HT2A
  IC50: 0.0017 µM
5-HT2C
  IC50: 0.079 µM
5-HT2B
  IC50: 0.791 µM
[9]
  Solubility in DMSO: ≥ 32 mg/mL and ≥ 73.19 mM

## Cn1c(=O)cc(N2CCC[C@@H](N)C2)n(Cc2cc(F)ccc2C#N)c1=O [trelagliptin (succinate), trelagliptin]
[2]; [11]
  EC50: > 1 µM

## COCCOC(=O)N1CCN(S(=O)(=O)c2cc(F)c(Oc3ccc(Cl)cc3)c(F)c2)C(C(=O)NO)C1 (stereo not shown) [XL-784]
[10]
  aqueous solubility: 0.02 mg/mL (≈ 36.4 µM)

From paper PMC10808794, “Snakebite drug discovery: high-throughput screening to identify novel snake venom metalloproteinase toxin inhibitors” (Frontiers in Pharmacology, 2024)
